The test system of one experiment is 4T1 cell line. As to the kind of experiment: Cell viability assay (WST-1). The experiment is classed as cell-based. The conditions noted are these: Mus musculus; 4T1, 10 μM, 24 hours; FIG. 3A; read-out: cancer cell viability inhibited. The procedure:
(§1) [4-1-1] The breast cancer cell line of Experimental Method 1 was treated with 5-aminoimidazole-4-carboxamide ribonucleotide (AICAR) (which is not the compound of Production Example 6) or the compound of Production Example 6 at a concentration of 0 to 30 μM, and then cultured for 24 hours, 48 hours and 72 hours. Thereafter, the cultured cells were treated with WST-1 reagent, and then the absorbance at a wavelength of 450 nm was measured. Here, the WST-1 reagent allows the cell viability to be measured by changing the color of the culture medium depending on the level of the mitochondrial dehydrogenase present in the cell.
(§2) [4-1-2] The breast cancer cell line 4T1, BT549 or MDA-MB-231 of Experimental Method 1 was treated with each of the compound of Production Example 6 and 13 compounds, including the compounds of Production Examples 1 to 5 and 8 to 15 having a similar structure (YE-01, 02, 03, 04, 05, 08, 09, 10, 11, 12, 13, 14 and 15), at a concentration of 0 to 50 μM, and then cultured for 24 hours. Each of three types of gastric cancer cell lines, brain cancer cell lines and pancreatic cancer cell lines was treated with the compound of Production Example 6 or the compound of Production Example 8 having a similar structure at a concentration of 0 to 50 μM, and then cultured for 24 hours. Thereafter, the cultured cells were treated with WST-1 reagent according to the manufacturer's instruction, and after a certain time, the absorbance at a wavelength of 450 nm was measured. Here, the WST-1 reagent allows the cell viability to be measured by changing the color of the culture medium depending on the level of the mitochondrial dehydrogenase present in the cell.
A general note: Tetrazolium dyes change colour on reduction, which living cells bring about.

A further experiment relates to BT549 cell line. As to the kind of experiment: Cell viability assay (WST-1). The note with it: Homo sapiens, BT-549; BT549, 10 μM, 24 hours; FIG. 3A; read-out: cancer cell viability inhibited. The experiment is classed as cell-based. The procedure:
as §1, §2

The next experiment concerns MDA-MB-231 cell line. Description: Cell viability assay (WST-1). In kind it is cell-based. The conditions noted are these: Homo sapiens; MDA-MB-231, 10 μM, 24 hours; FIG. 3A; read-out: cancer cell viability inhibited. As for the experimental part: as §1, §2
Experiment [1] relates to p-AMPK (Thr172). As to the kind of experiment: AMPK activation by p-AMPK (Thr172) Western blot in 4T1 cells. The note with it: 4T1, 10 μM, 24 hours; FIG. 3B. The experiment is classed as cell-based, mouse. The procedure: (§3) [3-1] The breast cancer cell line of Experimental Method 1 above was treated with the compound of Production Example 6 at a concentration of 0 to 30 μM, and then cultured for 24 hours. Thereafter, the cells were harvested and lysed in RIPA buffer, and the protein was electrophoresed by SDS-PAGE, and then the expression level of the protein was analyzed using antibodies specific for AMPK and phospho-AMPK (Thr172). GAPDH or β-actin was used as a loading control for protein quantification.
(§4) [3-2] The three breast cancer cell lines (4T1, BT549, and MDA-MB-231) of Experimental Method 1 were treated with each of the compound of Production Example 6 and 13 compounds, including the compounds of Production Examples 1 to 5 and 8 to 15 having a similar structure (YE-01, 02, 03, 04, 05, 08, 09, 10, 11, 12, 13, 14 and 15), at a concentration of 10 μM, and then cultured for 24 hours. In addition, each of two types of gastric cancer cell lines, brain cancer cell lines and pancreatic cancer cell lines was treated with the compound of Production Example 6 or the compound of Production Example 8 having a similar structure at a concentration of 10 μM and then cultured for 12 hours. Thereafter, the cells were harvested and lysed in RIPA buffer, and the protein was electrophoresed by SDS-PAGE, and then the expression level of the protein was analyzed using antibodies specific for AMPK and phospho-AMPK (Thr172). GAPDH or β-actin was used as a loading control for protein quantification.
Background: A western blot detects proteins with antibodies after separation by electrophoresis.

Experiment [2] relates to p-AMPK (Thr172). As to the kind of experiment: AMPK activation by p-AMPK (Thr172) Western blot in BT549 cells. In kind it is cell-based, human. The conditions noted are these: BT549, 10 μM, 24 hours; FIG. 3B. As for the experimental part:
as §3
as §4, with “In addition, each of two types of gastric cancer cell lines, brain cancer cell lines and pancreatic cancer cell lines was treated with the compound of Production Example 6 or the compound of Production Example 8 having a similar structure at a concentration of 10 μM and then cultured for 12 hours.” left out

The subject of experiment [3] is p-AMPK (Thr172). As to the kind of experiment: AMPK activation by p-AMPK (Thr172) Western blot in MDA-MB-231 cells. In kind it is cell-based, human. The note with it: MDA-MB-231, 10 μM, 24 hours; FIG. 3B. The procedure:
as §3, §4

For experiment [4], the system named is p-AMPK (Thr172). As to the kind of experiment: AMPK activation by p-AMPK (Thr172) Western blot in gastric cancer cell lines. The experiment is classed as cell-based, human. The conditions noted are these: 10 μM, 12 hours, compared to untreated group. The procedure:
as §4

Experiment [5] concerns p-AMPK (Thr172). Description: AMPK activation by p-AMPK (Thr172) Western blot in brain cancer cell lines. The conditions noted are these: 10 μM, 12 hours, compared to untreated group. In kind it is cell-based, human. As for the experimental part:
as §4

Experiment [6] deals with p-AMPK (Thr172). Description: AMPK activation by p-AMPK (Thr172) Western blot in pancreatic cancer cell lines. The experiment is classed as cell-based, human. The note with it: 10 μM, 12 hours, compared to untreated group. The procedure:
as §4

Bounds are passed on as bounds.

Consider 2 compounds from patent publication US12447137B2, “Composition for prevention, amelioration, or treatment of cancer” (EWHA UNIVERSITY—INDUSTRY COLLABORATION FOUNDATION, priority 2019, dated 2025).

For `COc1ccc(OC)c(/C=C/C(=O)c2cccc(NS(=O)(=O)c3ccc(Cl)cc3)c2)c1` [Production Example 8, (E)-4-chloro-N-(3-(3-(2,5-dimethoxyphenyl)acryloyl)phenyl)benzenesulfonamide], the cytotoxicity at 10 µM in the experiment on 4T1 cell line, in the experiment with BT549 cell line and in the experiment on MDA-MB-231 cell line was no less than 50% each time. For the same compound, the p-AMPK level entry with p-AMPK (Thr172) [1], in the experiment with p-AMPK (Thr172) [2] and with p-AMPK (Thr172) [3] was “effectively increased” in each case. For the same compound, the “expression of p-AMPK” value in the experiment on p-AMPK (Thr172) [4], in the experiment with p-AMPK (Thr172) [5] and with p-AMPK (Thr172) [6] was “increased” throughout.

As to `NC(=O)c1ncn([C@@H]2O[C@H](COP(=O)(O)O)[C@@H](O)[C@H]2O)c1N` [AICAR, 5-aminoimidazole-4-carboxamide ribonucleotide, reference compound], the “expression of p-AMPK” value in the experiment on p-AMPK (Thr172) [4], in the experiment on p-AMPK (Thr172) [5] and in the experiment with p-AMPK (Thr172) [6] was “insignificant effect” in each case.
